This test deals with HCV replicon in ET (Huh-lucubineo-ET) cell line (screening for HCV RNA dependent RNA polymerase). The test can be described thus: Replicon Assay (luciferase reporter, ET cell line). In kind it is cell-based. As to conditions: Hepatitis C virus; tested at 12.5 μM; luciferase activity in ET replicon cells, relative to no compound control; read-out: % inhibition (of replication). Here is the method: A cell line, ET (Huh-lucubineo-ET) was used for screening of compounds of the present invention for HCV RNA dependent RNA polymerase. The ET cell line was stably transfected with RNA transcripts harboring a I389luc-ubi-neo/NS3-3′/ET; replicon with firefly luciferase-ubiquitin-neomycin phosphotransferase fusion protein and EMCV-IRES driven NS3-5B polyprotein containing the cell culture adaptive mutations (E1202G; T1280I; K1846T) (Krieger at al, 2001 and unpublished). The ET cells were grown in DMEM, supplemented with 10% fetal calf serum, 2 mM Glutamine, Penicillin (100 IU/mL)/Streptomycin (100 μg/mL), 1× nonessential amino acids, and 250 μg/mL G418 (“Geneticin”). They were all available through Life Technologies (Bethesda, Md.). The cells were plated at 0.5-1.0×10^4 cells/well in the 96 well plates and incubated for 24 hrs before adding nucleoside analogs. […] Luciferase activity was measured 48-72 hours later by adding a lysis buffer and the substrate (Catalog number Glo-lysis buffer E2661 and Bright-Glo leuciferase system E2620 Promega, Madison, Wis.). Cells should not be too confluent during the assay. Percent inhibition of replication was plotted relative to no compound control. Under the same condition, cytotoxicity of the compounds was determined using cell proliferation reagent, WST-1 (Roche, Germany). The compounds showing potent antiviral activities, but no significant cytotoxicities were chosen for further evaluation. For these determinations, a 10-point, 2-fold serial dilution for each compound was used which spans a concentration range of 1000 fold. IC50 and TC50 values were calculated by fitting % inhibition at each concentration to the following equation: % inhibition=100%/[(IC50/[I])b+1] where b is Hill's coefficient.
The % inhibition at a particular concentration was determined using the following equation: % Inhibition=100−[100*(Lum with inhibitor-bg)/(Lum with no inhibitor-bg)]
where bg was the background with no replicon cell, and Lum was the luminescence intensity of the reporter luciferase gene.
As for `COc1ccc(-c2ccc(Cl)cc2)c(-c2ccc3cc(-c4ccc(C(=O)O)cc4C4CCCCC4)ccc3n2)c1` [Compound 1.8a, 3-cyclohexyl-4-(2-(3-methoxy-6-(4′-chlorophenyl)phenyl)quinolin-6-yl)benzoic acid], the inhibition at 12.5 µM came out at 89%. Next, `Cc1nc(C)c(-c2ccc3cc(-c4c(/C=C/C(=O)N5CCOCC5)cc(C(=O)O)cc4C4CCCCC4)ccc3n2)s1` [Compound 2.9a, 3-cyclohexyl-4-(2-(2,4-dimethylthiazol-5-yl)quinolin-6-yl)-5-((E)-3-morpholino-3-oxoprop-1-enyl)benzoic acid]: 65%; `Cc1nc(C)c(-c2ccc3cc(-c4c(CC(=O)N5CCOCC5)cc(C(=O)NC5(C(=O)O)CCCC5)cc4C4CCCCC4)ccc3n2)s1` [Compound 10, 1-[3-cyclohexyl-4-[2-(2,4-dimethyl-thiazol-5-yl)-quinolin-6-yl]-5-(2-morpholin-4-yl-2-oxo-ethyl)-benzoylamino]-cyclopentanecarboxylic acid]: 51%; `Cc1nc(C)c(-c2ccc3cc(-c4c(/C=C/C(=O)N5CCCCC5)cc(C(=O)O)cc4C4CCCCC4)ccc3n2)s1` [Compound 2.9b, 3-cyclohexyl-4-(2-(2,4-dimethylthiazol-5-yl)quinolin-6-yl)-5-((E)-3-oxo-3-(piperidin-1-yl)prop-1-enyl)benzoic acid]: 80%.

As for `C#Cc1cc(C(=O)O)cc(C2CCCCC2)c1-c1ccc2nc(-c3sc(C)nc3C)ccc2c1` [Compound 4.4b, 3-cyclohexyl-5-ethynyl-4-(2-(2,4-dimethylthiazol-5-yl)quinolin-6-yl)benzoic acid], the inhibition at 12.5 µM was determined as 87%. Next, `Cc1nc(C)c(-c2ccc3cc(-c4c(CC(=O)N5CCOCC5)cc(C(=O)O)cc4C4CCCCC4)ccc3n2)s1` [Compound 9, 3-cyclohexyl-4-[2-(2,4-dimethyl-thiazol-5-yl)-quinolin-6-yl]-5-(2-morpholin-4-yl-2-oxo-ethyl)-benzoic acid]: 6.4%; `COCCOc1ccc(-c2ccc(Cl)cc2)c(-c2ccc3cc(-c4ccc(C(=O)O)cc4C4CCCCC4)ccc3n2)c1` [Compound 1.8b, 3-cyclohexyl-4-(2-(3-(2-methoxyethoxy)-6-(4′-chlorophenyl)phenyl)quinolin-6-yl)benzoic acid]: 94%. Next, `Cc1nc(C)c(-c2ccc3cc(-c4c(C5CCCCC5)cc(C(=O)O)cc4[N+](=O)[O-])ccc3n2)s1` [Compound 7, 3-cyclohexyl-4-[2-(2,4-dimethyl-thiazol-5-yl)-quinolin-6-yl]-5-nitro-benzoic acid]: 30%; `Cc1nc(C)c(-c2ccc3cc(-c4c(N)cc(C(=O)O)cc4C4CCCCC4)ccc3n2)s1` [Compound 8, 3-amino-5-cyclohexyl-4-[2-(2,4-dimethyl-thiazol-5-yl)-quinolin-6-yl]-benzoic acid]: 54%; `Cc1nc(C)c(-c2ccc3cc(-c4c(CC(=O)N5CCOCC5)cc(-c5nnn[nH]5)cc4C4CCCCC4)ccc3n2)s1` [Compound 11, 2-[3-cyclohexyl-2-[2-(2,4-dimethyl-thiazol-5-yl)-quinolin-6-yl]-5-(1H-tetrazol-5-yl)-phenyl]-1-morpholin-4-yl-ethanone]: 27%.

These data come from patent US20070032488A1, “6-Membered aryl and heteroaryl derivatives for treating viruses” (Genelabs Technologies, Inc., priority 2005, published 2007).
